# Experimental data reported in ChEMBL document CHEMBL3045945, “INHIBITORS OF FILARIAL GAMMA-GLUTAMYL CYCLE ENZYMES AS POSSIBLE MACROFILARICIDAL AGENTS” (Med Chem Res, 2004).
# Structures can show the parent of a compound that is named as a salt. The source made the active and inactive calls. No cut-off for these calls is given here.
# Test system: Setaria cervi
# Experiment: Antifilarial activity against Setaria cervi assessed as change in GSH level at 250 uM after 6 hr by RP-HPLC analysis
# Format: functional
row,SMILES,Activity
1,CO[C@@H]1[C@H]2OC(C)(C)O[C@H]2O[C@@H]1CNCCCCCCCCCCCCNC[C@@H]1O[C@H]2OC(C)(C)O[C@H]2[C@@H]1OC (stereo in doubt),39%
2,CCOC(=O)CC(NCCCCCCCCCCNC(CC(=O)OCC)[C@@H]1O[C@H]2OC(C)(C)O[C@H]2[C@@H]1OCc1ccccc1)[C@H]1O[C@@H]2OC(C)(C)O[C@@H]2[C@H]1OCc1ccccc1 (some centres not stated),58.17%
3,Cc1cc(=O)oc2cc(OCC(=O)NCCCCCCCCCCCCN)ccc12,3.22%
4,CO[C@@H]1[C@H]2OC(C)(C)O[C@H]2O[C@@H]1CNCCCCCCCCCCNC[C@@H]1O[C@H]2OC(C)(C)O[C@H]2[C@@H]1OC,33.14%
5,CCOC(=O)CC(NCCCCCCCNC(CC(=O)OCC)[C@@H]1O[C@H]2OC(C)(C)O[C@H]2[C@@H]1OC)[C@H]1O[C@@H]2OC(C)(C)O[C@@H]2[C@H]1OC (some centres not stated),39.04%
6,CC1(C)O[C@@H]2O[C@@H](CNCCCCCCCCCCCCNC[C@H]3O[C@@H]4OC(C)(C)O[C@@H]4[C@H]3OCc3ccccc3)[C@@H](OCc3ccccc3)[C@@H]2O1,60%
7,CCOC(=O)CC(NCCCCCCCCCCNC(CC(=O)OCC)[C@@H]1O[C@H]2OC(C)(C)O[C@H]2[C@@H]1OC)[C@H]1O[C@@H]2OC(C)(C)O[C@@H]2[C@H]1OC (some centres not stated),48%
8,CC1(C)O[C@@H]2O[C@@H](CNCCCCCCCNC[C@H]3O[C@@H]4OC(C)(C)O[C@@H]4[C@H]3OCc3ccccc3)[C@@H](OCc3ccccc3)[C@@H]2O1,69.29%
9,CC(C)=CC(=O)C=C(C)C [PHORONE],93.7%
10,Cc1cc2oc(=O)cc(C)c2cc1C,42.07%
11,CCCc1cc(=O)oc2cc(OCC(=O)OCC)ccc12,5.75%
12,Cc1cc(C)c2c(C)cc(=O)oc2c1,65%
13,Cc1cc(=O)oc2cc(OCC(=O)NC3CCCCC3)ccc12,46%
14,"CCOC(=O)CC(NCCCNC(CC(=O)OCC)[C@@H]1O[C@H]2OC(C)(C)O[C@H]2[C@@H]1OCc1ccccc1)C1O[C@@H]2OC(C)(C)OC2[C@H]1OCc1ccccc1 (single isomer, unassigned)",59.12%
15,CC1(C)O[C@@H]2O[C@@H](CNCCCCCCCCCCNC[C@H]3O[C@@H]4OC(C)(C)O[C@@H]4[C@H]3OCc3ccccc3)[C@@H](OCc3ccccc3)[C@@H]2O1,52.5%
16,O=NN(CCCl)C(=O)NCCCl [CARMUSTINE],68.97%
17,COC(=O)/C=C\C(=O)OC [DIMETHYL MALEATE],95.82%
18,CCOC(=O)CC(NCCCCCCCCCCCCNC(CC(=O)OCC)[C@@H]1O[C@H]2OC(C)(C)O[C@H]2[C@@H]1OCc1ccccc1)[C@H]1O[C@@H]2OC(C)(C)O[C@@H]2[C@H]1OCc1ccccc1 (some centres not stated),67%
19,CN(C)c1ccc2nc3ccc(N(C)C)cc3[s+]c2c1.[Cl-] [METHYLENE BLUE ANHYDROUS],34.68%
20,"CCOC(=O)CC(NCCCCCCCNC(CC(=O)OCC)[C@H]1O[C@@H]2OC(C)(C)OC2[C@H]1OCc1ccccc1)C1OC2OC(C)(C)O[C@H]2[C@@H]1OCc1ccccc1 (single isomer, unassigned)",15.9%
21,CC1=CC(=O)c2ccccc2C1=O [MENADIONE],96.04%
22,CCCCS(=N)(=O)CC[C@H](N)C(=O)O (some centres not stated) [BUTHIONINE SULFOXIME],35.78%
23,CCCCCCCCCCCCCC(=O)Oc1ccc2c(C)cc(=O)oc2c1,inactive
24,CCOC(=O)CC(NCCCCCCCCCCCCNC(CC(=O)OCC)[C@@H]1O[C@H]2OC(C)(C)O[C@H]2[C@@H]1OC)[C@H]1O[C@@H]2OC(C)(C)O[C@@H]2[C@H]1OC (stereo in doubt),37.43%
25,"CO[C@H]1[C@@H](CNCCCCCCCNC[C@@H]2O[C@H]3OC(C)(C)OC3[C@@H]2OC)OC2OC(C)(C)O[C@@H]21 (single isomer, unassigned)",52.54%
26,CCOC(=O)CC(NCCCNC(CC(=O)OCC)[C@@H]1O[C@H]2OC(C)(C)O[C@H]2[C@@H]1OC)[C@H]1O[C@@H]2OC(C)(C)O[C@@H]2[C@H]1OC (some centres not stated),14.55%

# Molecular target: Glutathione hydrolase 1 proenzyme (Rattus norvegicus, UniProt P07314)
# Experiment: Inhibition of Rattus norvegicus Wistar (rat) rat Gamma-glutamyltranspeptidase using L-gamma-glutamyl-p-nitroanilide as substrate incubated for 15 min prior to substrate addition by spectrophotometric analysis
# Sequence of Glutathione hydrolase 1 proenzyme (P07314 1-379 limits assumed): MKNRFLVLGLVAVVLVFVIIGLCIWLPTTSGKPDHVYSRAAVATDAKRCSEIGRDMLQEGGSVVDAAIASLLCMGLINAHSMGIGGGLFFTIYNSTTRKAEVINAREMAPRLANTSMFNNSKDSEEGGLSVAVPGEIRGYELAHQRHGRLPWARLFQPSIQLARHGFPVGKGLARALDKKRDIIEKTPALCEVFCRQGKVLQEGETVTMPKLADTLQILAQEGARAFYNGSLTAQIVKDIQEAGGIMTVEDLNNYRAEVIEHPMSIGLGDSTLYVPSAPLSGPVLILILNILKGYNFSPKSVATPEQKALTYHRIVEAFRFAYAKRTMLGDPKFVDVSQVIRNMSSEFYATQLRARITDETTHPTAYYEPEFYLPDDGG
# Sequence of Glutathione hydrolase 1 proenzyme (P07314 380-568 limits assumed): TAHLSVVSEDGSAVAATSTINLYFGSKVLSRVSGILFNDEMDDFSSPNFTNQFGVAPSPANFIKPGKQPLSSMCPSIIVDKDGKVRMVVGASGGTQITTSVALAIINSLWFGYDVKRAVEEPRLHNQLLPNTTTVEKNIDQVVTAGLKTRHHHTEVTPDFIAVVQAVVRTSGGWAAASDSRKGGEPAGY
row,SMILES,Ki
1,N[C@@H](CO)C(=O)O [SERINE],50 µM
